In patent US11129829B2, “Methods for modulating splicing” (Skyhawk Therapeutics, Inc., priority 2019, dated 2021):

Experiments:
Format in all cases: cell-based
A-673 = A-673 cell viability
FoxM1 A mRNA = assay: Splice EC50: FoxM1 A mRNA increase (exon excluded); conditions: read-out: Splice EC50 (nM)^B
FoxM1 BC mRNA = assay: Splice IC50: FoxM1 BC mRNA decrease (exon included); conditions: read-out: Splice IC50 (nM)^C
[1] = Homo sapiens, A673, Cell viability

SMILES	IC50 (A-673; Cell viability) [nM]	EC50 (FoxM1 A mRNA) [nM]	IC50 (FoxM1 BC mRNA) [nM]	IC50 (A-673; [1]) [nM]
CN(c1ccc(-c2ccc(-n3ccnn3)cc2O)nn1)[C@@H]1C[C@H]2CCC[C@@H](C1)N2 [compound 279, 2-(6-(((1R,3S,5S)-9-azabicyclo[3.3.1]nonan-3-yl)(methyl)amino)pyridazin-3-yl)-5-(1H-1,2,3-triazol-1-yl)phenol]	10 to 100	< 10	< 10	–
Oc1cc(-c2cn[nH]c2)ccc1-c1ccc(O[C@@H]2C[C@H]3CCC[C@@H](C2)N3)nn1 [compound 277, 2-(6-(((1R,3R,5S)-9-azabicyclo[3.3.1]nonan-3-yl)oxy)pyridazin-3-yl)-5-(1H-pyrazol-4-yl)phenol]	> 1000	> 1000	> 1000	–
Oc1cc(-c2cn[nH]c2)ccc1-c1ccc(O[C@@H]2C[C@H]3COC[C@@H](C2)N3)nn1 [compound 159, 2-(6-(((1R,5S,7r)-3-oxa-9-azabicyclo[3.3.1]nonan-7-yl)oxy)pyridazin-3-yl)-5-(1H-pyrazol-4-yl)phenol]	–	251 to 500	501 to 1000	501 to 1000
CN(c1ccc(-c2ccc(-n3nccn3)cc2O)nn1)[C@@H]1C[C@H]2CCC[C@@H](C1)N2 [compound 275, 2-(6-(((1R,3S,5S)-9-azabicyclo[3.3.1]nonan-3-yl)(methyl)amino)pyridazin-3-yl)-5-(2H-1,2,3-triazol-2-yl)phenol]	< 10	< 10	< 10	–
Cc1cn(-c2ccc(-c3ccc(N(C)[C@H]4C[C@]5(C)CC[C@](C)(C4)N5)nn3)c(O)c2)cn1 [compound 177, 2-(6-(((1R,3S,5S)-1,5-dimethyl-8-azabicyclo[3.2.1]octan-3-yl)(methyl)amino)pyridazin-3-yl)-5-(4-methyl-1H-imidazol-1-yl)phenol]	–	< 10	< 10	10 to 100
